ChEMBL document CHEMBL1158637, “Orally bioavailable dual MMP-1/MMP-14 sparing, MMP-13 selective alpha-sulfone hydroxamates” (Bioorg Med Chem Lett, 2010)

Key:
[1] = Selectivity ratio of IC50 for MMP2 to IC50 for MMP13
[2] = biological target: 72 kDa type IV collagenase (Homo sapiens, UniProt P08253); assay: Inhibition of MMP2
Collagenase 3 = Collagenase 3 (Homo sapiens, UniProt P45452); assay: Inhibition of MMP13
Interstitial collagenase = Interstitial collagenase (Homo sapiens, UniProt P03956); assay: Inhibition of MMP1
Stromelysin-1 = Stromelysin-1 (Homo sapiens, UniProt P08254); assay: Inhibition of MMP3
Matrilysin = biological target: T1, Matrilysin (Homo sapiens, UniProt P09237); assay: Inhibition of MMP7
T1 sequence (P09237 whole entry): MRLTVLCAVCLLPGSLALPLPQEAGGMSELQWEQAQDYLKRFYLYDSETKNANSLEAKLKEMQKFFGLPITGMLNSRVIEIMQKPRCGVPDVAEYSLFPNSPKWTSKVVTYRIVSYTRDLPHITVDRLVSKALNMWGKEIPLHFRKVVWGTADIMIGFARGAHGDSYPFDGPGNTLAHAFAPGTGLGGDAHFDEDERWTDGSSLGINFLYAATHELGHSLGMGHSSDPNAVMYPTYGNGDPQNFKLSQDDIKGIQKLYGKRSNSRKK

Neutrophil collagenase = Neutrophil collagenase (Homo sapiens, UniProt P22894); assay: Inhibition of MMP8
[3] = Half life in rat; type: ADME, organism-based; conditions: in vivo
[4] = Oral bioavailability in rat; type: ADME, organism-based; conditions: in vivo

Chain of Interstitial collagenase (P03956 whole entry): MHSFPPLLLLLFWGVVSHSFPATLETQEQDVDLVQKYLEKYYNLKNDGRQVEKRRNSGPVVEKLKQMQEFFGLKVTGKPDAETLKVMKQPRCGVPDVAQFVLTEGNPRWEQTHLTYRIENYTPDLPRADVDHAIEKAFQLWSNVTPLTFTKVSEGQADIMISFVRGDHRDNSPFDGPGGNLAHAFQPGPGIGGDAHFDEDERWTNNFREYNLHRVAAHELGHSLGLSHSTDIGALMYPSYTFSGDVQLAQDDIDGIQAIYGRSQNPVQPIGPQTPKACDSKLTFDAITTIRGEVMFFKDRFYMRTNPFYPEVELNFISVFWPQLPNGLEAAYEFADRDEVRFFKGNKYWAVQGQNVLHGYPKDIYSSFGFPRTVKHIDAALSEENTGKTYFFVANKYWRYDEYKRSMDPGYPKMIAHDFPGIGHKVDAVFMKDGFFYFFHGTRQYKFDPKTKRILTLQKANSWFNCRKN
Chain of 72 kDa type IV collagenase (P08253 whole entry): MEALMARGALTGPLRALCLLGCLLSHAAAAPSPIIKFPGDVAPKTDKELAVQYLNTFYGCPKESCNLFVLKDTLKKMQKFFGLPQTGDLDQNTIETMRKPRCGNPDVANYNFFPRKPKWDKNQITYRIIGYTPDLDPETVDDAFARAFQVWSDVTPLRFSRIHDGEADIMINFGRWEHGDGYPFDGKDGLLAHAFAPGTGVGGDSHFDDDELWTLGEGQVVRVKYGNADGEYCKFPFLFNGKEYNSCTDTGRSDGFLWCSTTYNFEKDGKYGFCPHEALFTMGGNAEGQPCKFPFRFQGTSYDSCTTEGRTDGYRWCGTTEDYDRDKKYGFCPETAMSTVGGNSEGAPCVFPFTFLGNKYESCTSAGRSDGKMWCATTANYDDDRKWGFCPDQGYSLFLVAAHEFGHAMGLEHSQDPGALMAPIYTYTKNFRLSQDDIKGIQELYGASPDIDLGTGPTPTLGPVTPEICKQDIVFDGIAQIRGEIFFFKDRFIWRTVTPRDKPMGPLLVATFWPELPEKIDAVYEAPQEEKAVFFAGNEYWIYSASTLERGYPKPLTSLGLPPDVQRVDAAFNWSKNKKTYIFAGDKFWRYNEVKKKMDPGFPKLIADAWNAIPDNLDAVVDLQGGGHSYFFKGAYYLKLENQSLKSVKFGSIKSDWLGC
Chain of Stromelysin-1 (P08254 whole entry): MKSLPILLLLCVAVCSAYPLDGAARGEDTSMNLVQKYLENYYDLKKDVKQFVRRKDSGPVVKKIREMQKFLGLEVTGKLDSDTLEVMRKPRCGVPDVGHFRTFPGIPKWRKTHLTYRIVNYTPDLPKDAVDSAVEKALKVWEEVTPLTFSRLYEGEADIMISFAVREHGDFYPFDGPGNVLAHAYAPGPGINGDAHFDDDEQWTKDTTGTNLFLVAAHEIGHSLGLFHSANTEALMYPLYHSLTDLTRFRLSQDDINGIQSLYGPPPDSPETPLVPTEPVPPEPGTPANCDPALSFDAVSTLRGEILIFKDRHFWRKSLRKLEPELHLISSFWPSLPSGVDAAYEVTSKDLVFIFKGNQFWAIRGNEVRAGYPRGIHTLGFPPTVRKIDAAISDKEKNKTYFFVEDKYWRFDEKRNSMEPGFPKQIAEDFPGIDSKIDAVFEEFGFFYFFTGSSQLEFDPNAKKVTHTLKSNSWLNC
Chain of Neutrophil collagenase (P22894 whole entry): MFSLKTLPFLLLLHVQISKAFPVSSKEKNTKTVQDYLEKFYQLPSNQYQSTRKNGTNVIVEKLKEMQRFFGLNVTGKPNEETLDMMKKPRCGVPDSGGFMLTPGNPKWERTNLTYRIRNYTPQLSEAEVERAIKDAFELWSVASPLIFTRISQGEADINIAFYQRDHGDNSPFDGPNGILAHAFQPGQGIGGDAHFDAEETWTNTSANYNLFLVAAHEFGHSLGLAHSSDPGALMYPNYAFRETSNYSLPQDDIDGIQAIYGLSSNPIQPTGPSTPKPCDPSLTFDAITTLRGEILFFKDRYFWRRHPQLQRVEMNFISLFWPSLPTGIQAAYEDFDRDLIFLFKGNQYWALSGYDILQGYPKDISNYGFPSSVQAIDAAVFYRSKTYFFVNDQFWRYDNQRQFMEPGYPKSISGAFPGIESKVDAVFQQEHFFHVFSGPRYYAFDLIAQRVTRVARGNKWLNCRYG

Compound	Ratio IC50 [1]	IC50 [2] [nM]	IC50 (Collagenase 3) [nM]	also measured
O=C(NO)C1(S(=O)(=O)c2ccc(N3CCN(c4ccccc4)CC3)cc2)CCOCC1	13.8			
COc1ccccc1C1CCN(c2ccc(S(=O)(=O)C3(C(=O)NO)CCOCC3)cc2)CC1	211	3700	17.5	
O=C(NO)C1(S(=O)(=O)c2ccc(N3CCN(c4cccc(C(F)(F)F)c4)CC3)cc2)CCOCC1	16.5	330	20	
O=C(NO)C1(S(=O)(=O)c2ccc(N3CCN(c4ccccc4Cl)CC3)cc2)CCOCC1	4.4			
C#CCN1CCC(C(=O)NO)(S(=O)(=O)c2ccc(Sc3ccccc3)cc2)CC1		0.33		IC50 (Interstitial collagenase): 8660 nM; IC50 (Stromelysin-1): 13 nM; IC50 (Matrilysin): > 10000 nM; IC50 (Neutrophil collagenase): 1.8 nM
O=C(NO)C1(S(=O)(=O)c2ccc(N3CCN(c4ccc(Cl)cc4)CC3)cc2)CCOCC1		3.7	1	IC50 (Interstitial collagenase): > 10000 nM; IC50 (Stromelysin-1): 130 nM; IC50 (Neutrophil collagenase): 1000 nM; half-life [3]: 1.91 h; bioavailability [4]: 7.4%
O=C(NO)C1(S(=O)(=O)c2ccc(N3CCN(c4ccccc4)CC3)cc2)CCN(C2CC2)CC1	1.6	5.4	3.3	
COc1cccc(N2CCN(c3ccc(S(=O)(=O)C4(C(=O)NO)CCOCC4)cc3)CC2)c1	6.1	48.5	8	
O=C(NO)C1(S(=O)(=O)c2ccc(N3CCN(c4ccc(C(F)(F)F)cc4)CC3)cc2)CCOCC1		12.1	0.6	IC50 (Interstitial collagenase): > 10000 nM; IC50 (Stromelysin-1): 300 nM; IC50 (Matrilysin): > 10000 nM; IC50 (Neutrophil collagenase): 670 nM; half-life [3]: 2.59 h; bioavailability [4]: 16.3%
COc1ccc(C2CCN(c3ccc(S(=O)(=O)C4(C(=O)NO)CCOCC4)cc3)CC2)c(C)c1	72.1			
COc1ccc(N2CCN(c3ccc(S(=O)(=O)C4(C(=O)NO)CCOCC4)cc3)CC2)cc1	29	18.4	0.5	
O=C(NO)C1(S(=O)(=O)c2ccc(N3CCN(c4ccccc4F)CC3)cc2)CCOCC1	7.8			
O=C(NO)C1(S(=O)(=O)c2ccc(N3CCC(c4ccc(Cl)cc4)CC3)cc2)CCOCC1	2.9			
COc1ccccc1N1CCN(c2ccc(S(=O)(=O)C3(C(=O)NO)CCOCC3)cc2)CC1	2.8			
Cc1ccccc1N1CCN(c2ccc(S(=O)(=O)C3(C(=O)NO)CCOCC3)cc2)CC1	11.4			
COc1ccc(N2CCN(c3ccc(S(=O)(=O)C4(C(=O)NO)CCN(C5CC5)CC4)cc3)CC2)cc1		5.3	0.42	IC50 (Interstitial collagenase): > 10000 nM; IC50 (Stromelysin-1): 24.5 nM; IC50 (Neutrophil collagenase): 59.2 nM; half-life [3]: 0.24 h; bioavailability [4]: 20.7%
COc1ccc(C(C)C)cc1C1CCN(c2ccc(S(=O)(=O)C3(C(=O)NO)CCOCC3)cc2)CC1	143	> 10000	70	
COc1ccc(C2CCN(c3ccc(S(=O)(=O)C4(C(=O)NO)CCOCC4)cc3)CC2)c(OC)c1	159			
O=C(NO)C1(S(=O)(=O)c2ccc(N3CCN(c4ccc(C(F)(F)F)cc4)CC3)cc2)CCN(C2CC2)CC1	13.6	32.6	2.4	
CCOc1ccccc1C1CCN(c2ccc(S(=O)(=O)C3(C(=O)NO)CCOCC3)cc2)CC1	88.6			
O=C(NO)C1(S(=O)(=O)c2ccc(N3CCC(c4ccccc4)CC3)cc2)CCOCC1	0.7			
O=C(NO)C1(S(=O)(=O)c2ccc(N3CCC(c4ccccc4-c4ccc(F)cc4)CC3)cc2)CCOCC1	160			
O=C(NO)C1(S(=O)(=O)c2ccc(N3CCC(c4ccccc4Cl)CC3)cc2)CCOCC1	1.9	82	42.5	
O=C(NO)C1(S(=O)(=O)c2ccc(N3CCC(c4ccccc4O)CC3)cc2)CCOCC1	6.2			
O=C(NO)C1(S(=O)(=O)c2ccc(N3CCC(c4cccc5ccccc45)CC3)cc2)CCOCC1	43.9			
Cc1ccc(N2CCN(c3ccc(S(=O)(=O)C4(C(=O)NO)CCOCC4)cc3)CC2)cc1	18.4			
O=C(NO)C1(S(=O)(=O)c2ccc(N3CCC(c4ccccc4C(F)(F)F)CC3)cc2)CCOCC1	31.3			
Cc1ccccc1C1CCN(c2ccc(S(=O)(=O)C3(C(=O)NO)CCOCC3)cc2)CC1	21.4	700	32.7	
COc1ccc(OC)c(C2CCN(c3ccc(S(=O)(=O)C4(C(=O)NO)CCOCC4)cc3)CC2)c1	70.2	800	11.4	
Cc1ccc(N2CCN(c3ccc(S(=O)(=O)C4(C(=O)NO)CCOCC4)cc3)CC2)c(C)c1	49	1400	28.6	
